The text below walks through data of ChEMBL document CHEMBL3045875, “Design, synthesis, and biological evaluation studies of novel quinazolinone derivatives as anticonvulsant agents” (Med Chem Res, 2013).

Data set [1] deals with Mus musculus. Put plainly: Anticonvulsant activity in Swiss albino Mus musculus (mouse) assessed as protection against Maximal electric shock-induced seizures at 0.5 mmol/kg, ip administered 30 min prior to electric shock-challenge relative to control. Format: functional.
Data set [2] concerns Mus musculus. Put plainly: Anticonvulsant activity in Swiss albino Mus musculus (mouse) assessed as protection against PTZ-induced seizures at 0.5 mmol/kg, i.p. administered 30 min prior to PTZ-challenge relative to control. Format: functional.
Data set [3] concerns Mus musculus. Put plainly: Anticonvulsant activity in ip dosed Swiss albino Mus musculus (mouse) assessed as protection against PTZ-induced seizures administered 30 min prior to PTZ-challenge. Format: functional.
A short description of data set [4]: Therapeutic index, ratio of LD50 to ED50 in Swiss albino Mus musculus (mouse). The following applies: in vivo, read-out: Ratio LD50/ED50. Format: organism-based.
Data set [5] is filed under the species Mus musculus. The experiment in a line: Protective index, ratio of TD50 to ED50 in Swiss albino Mus musculus (mouse).
The nature of data set [6]: Neurotoxicity in ip dosed Swiss albino Mus musculus (mouse) after 4 hr by rotarod test. The format is toxicity, organism-based. The following applies: in vivo.
A short description of data set [7]: Toxicity in ip dosed Swiss albino Mus musculus (mouse) assessed as mortality. Format: organism-based. Particulars: in vivo.
For data set [8], the system named is Mus musculus. The experiment in a line: Anticonvulsant activity in Swiss albino Mus musculus (mouse) assessed as protection against Maximal electric shock-induced seizures at 1.8 mmol/kg, ip administered 30 min prior to electric shock-challenge relative to control. Format: functional.
Data set [9] relates to Mus musculus. Put plainly: Anticonvulsant activity in Swiss albino Mus musculus (mouse) assessed as protection against PTZ-induced seizures at 1.8 mmol/kg, i.p. administered 30 min prior to PTZ-challenge relative to control. Format: functional.
The test system of data set [10] is Mus musculus. The experiment in a line: Anticonvulsant activity in Swiss albino Mus musculus (mouse) assessed as protection against Maximal electric shock-induced seizures at 0.8 mmol/kg, ip administered 30 min prior to electric shock-challenge relative to control. The format is functional.
Data set [11] concerns Mus musculus. The experiment in a line: Anticonvulsant activity in Swiss albino Mus musculus (mouse) assessed as protection against PTZ-induced seizures at 0.8 mmol/kg, i.p. administered 30 min prior to PTZ-challenge relative to control. Format: functional.

With `Cc1nc2c(I)cc(I)cc2c(=O)n1Cc1ccc(Cl)c(Cl)c1`, the Activity in the data set on Mus musculus [1] and in the data set with Mus musculus [2] was 66% each time.

For `Cc1nc2c(I)cc(I)cc2c(=O)n1-c1ccc(Br)cc1`, the Activity came to 66% in the data set on Mus musculus [1] and 100% with Mus musculus [2].

Take `Cc1ccc(Cn2c(C)nc3c(I)cc(I)cc3c2=O)cc1`: the Activity with Mus musculus [1] is 33%; with Mus musculus [2], 50%.

With `COc1ccc(Cn2c(C)nc3c(I)cc(I)cc3c2=O)cc1`, the values for the Activity with Mus musculus [1] and in the data set on Mus musculus [2] were 33% and 66%, respectively.

Turning to `Cc1nc2c(I)cc(I)cc2c(=O)n1Cc1cccc([N+](=O)[O-])c1`, the figures for the Activity in the data set with Mus musculus [1] and in the data set on Mus musculus [2] were 66% and 100%, respectively.

One may read the ED50 as the dose at which the effect has come halfway, by size or by number of responders. What is called TD50 is the dose at which the toxic effect under study appears in half of the subjects. Read a high TD50 as harm only at a large dose. What is called LD50 is the dose at which mortality reaches 50%. `Cc1nc2c(I)cc(I)cc2c(=O)n1Cc1ccc(Br)cc1`: the 50% effective dose (ED50) in the data set with Mus musculus [3] came out at 138 mg/kg. Moreover, in [4], the selectivity ratio turned out to be 4.09. The Activity with Mus musculus [1] and in the data set on Mus musculus [2] was 100% in each case. The “Ratio TD50/ED50” value in the data set filed under Mus musculus [5] is given as 2.39. The TD50 at 4 h in data set [6] worked out at 330 mg/kg. The LD50 in [7] was 565 mg/kg.

As for `Cc1nc2ccccc2c(=O)n1Cc1ccc(Br)cc1`, the Activity in the data set on Mus musculus [1] and in the data set with Mus musculus [2] was 66% each time.

For the molecule `Cc1nc2c(I)cc(I)cc2c(=O)n1Cc1ccc(Cl)cc1`, the ED50 with Mus musculus [3] was found to be 150 mg/kg. Further, the selectivity ratio in [4] worked out at 4. The Activity in the data set with Mus musculus [1] and in the data set on Mus musculus [2] was 100% in each case. Moreover, in the data set listed under Mus musculus [5], the “Ratio TD50/ED50” value turned out to be 1.87. Moreover, the TD50 at 4 h in data set [6] stood at 280 mg/kg. Besides, in data set [7], the 50% lethal dose (LD50) worked out at 600 mg/kg.

Take `Cc1nc2c(I)cc(I)cc2c(=O)n1Cc1ccc(F)cc1`: the ED50 in the data set with Mus musculus [3] came out at 160 mg/kg. Further, the selectivity ratio in [4] turned out to be 2.62. In addition, the Activity in the data set with Mus musculus [1] and in the data set on Mus musculus [2] was 100% throughout. Besides, the “Ratio TD50/ED50” value in the data set listed under Mus musculus [5] was found to be 2.25. The molecule also displayed a TD50 at 4 h in data set [6] of 360 mg/kg. Moreover, the LD50 in [7] worked out at 420 mg/kg.

On to `Cc1nc2c(I)cc(I)cc2c(=O)n1Cc1cccc(C(F)(F)F)c1`, for which the Activity in the data set on Mus musculus [1] is reported as 33%; in the data set with Mus musculus [2], 50%.

In the case of `CCCC(CCC)C(=O)[O-].[Na+]` [VALPROATE SODIUM], the ED50 in the data set on Mus musculus [3] is 300 mg/kg. Besides, the Activity in the data set on Mus musculus [8] and in the data set on Mus musculus [9] was 100% throughout. In data set [6], this molecule registered a TD50 at 4 h of 450 mg/kg.

In the case of `Cc1nc2ccc(I)cc2c(=O)n1Cc1ccc(Br)cc1`, the Activity in the data set on Mus musculus [1] and in the data set with Mus musculus [2] was 66% throughout.

Regarding `Cc1nc2c(I)cc(I)cc2c(=O)n1Cc1ccccc1`, the Activity with Mus musculus [1] came to 50%; in the data set with Mus musculus [2], 66%.

As for `Cc1nc2c(I)cc(I)cc2c(=O)n1Cc1ccc(I)cc1`, the Activity in the data set on Mus musculus [1] and in the data set with Mus musculus [2] was 66% in each case.

Consider `Cc1nc2c(I)cc(I)cc2c(=O)n1Cc1cccc(Cl)c1`, for which the Activity is listed as 66% in the data set with Mus musculus [1] and 100% in the data set on Mus musculus [2].

With `Cc1ccccc1-n1c(C)nc2ccccc2c1=O` [METHAQUALONE], the Activity in the data set on Mus musculus [10] and with Mus musculus [11] was 100% throughout. For the same molecule, in the data set with Mus musculus [3], the ED50 worked out at 200 mg/kg. For the same molecule, the “Ratio TD50/ED50” value in the data set listed under Mus musculus [5] is recorded as 2. In data set [6], the TD50 at 4 h stood at 400 mg/kg.
